According to patent publication US20030118990A1, “Novel estrogen-regulated G protein gamma subunit: compositions and methods of use” (Schering Aktiengesellschaft, priority 2000, published 2003):

System: mGγ12 mRNA
Experiment: Northern blot analysis of mGγ12 mRNA in liver of estrogen-treated mice
Format: in vivo, mouse
Conditions: liver RNA; normal male mice treated with estrogen vs ERKO male mice treated with estrogen and un-treated male mice; effect via estrogen receptor alpha, not beta
Method: Expressed sequence tags (EST) that represent messenger RNA (mRNA) molecules that are more abundant in the liver of normal male mice treated with estrogen than in the liver of estrogen receptor alpha knockout (ERKO) male mice also treated with estrogen were obtained by subtraction cloning. The DNA sequence of complementary DNA (cDNA) clones representing the full-length mRNA molecules corresponding to one of the above mentioned EST's was obtained.
Northern blot analysis was conducted with RNA prepared from the livers of normal male mice treated with estrogen, ERKO male mice treated with estrogen, and un-treated male mice using a hybridization probe derived from the mGγ12 cDNA.

estrogen
transcription of the mGγ12 gene in the liver: activated
